Reference: patent US20230330134A1, “METHOD OF PROPHYLAXIS OF CORONAVIRUS AND/OR RESPIRATORY SYNCYTIAL VIRUS INFECTION” (Starpharma Pty Ltd., priority 2020, published 2023)
Structures can show the parent of a compound that is named as a salt. Where two headings read alike, the source gives them in different places.

What was measured:
[1] = tested on: SARS-CoV-2 (hCoV-19/Australia/VIC01/2020); format: cell-based
[2] = tested on: SARS-CoV-2 hCoV-19/Australia/VIC01/2020; experiment: microbe, parasite or virus in culture; format: cell-based; settings: Severe acute respiratory syndrome coronavirus 2, 96 h; positive control; Vero cells; […]; CPE by MTT after 4 days; read-out: EC50
[3] = tested on: SARS-CoV-2 (2019-nCoV/USA-WA1/2020); experiment: microbe, parasite or virus in culture; format: cell-based; settings: for EC50: read-out: EC50
SARS = settings: cited from earlier work
BetaCoV/Wuhan/WIV04/2019 = settings: against BetaCoV/Wuhan/WIV04/2019; cited from earlier work
[4] = tested on: SARS-CoV-2 2019-nCoV/USA-WAl/2020; experiment: Antiviral activity in primary human bronchial epithelial cells (HBEpC); format: cell-based; settings: highest concentration tested (600 µg/mL), added 1 hour prior to infection, day 4

Molecule: CCN(CCO)CCCC(C)Nc1ccnc2cc(Cl)ccc12 (centres unmarked) [Hydroxychloroquine sulfate]
- effect on virus replication ([1]; 15 µM, any time point): no discernible effect

Molecule: CCC(CC)COC(=O)[C@H](C)N[P@](=O)(OC[C@H]1O[C@@](C#N)(c2ccc3c(N)ncnn23)[C@H](O)[C@@H]1O)Oc1ccccc1 [Remdesivir, reference compound]
- EC50 [2]: 5.05 µM
- EC50 ([3]; Severe acute respiratory syndrome coronavirus 2, Calu-3): 0.589 µM
- EC50 ([3]; Severe acute respiratory syndrome coronavirus 2, Vero C1008): 0.791 µM
- activity in the plaque assay ([3]; positive control): active
- inhibition of virus replication [1]: < 1 log10 TCID50

Molecule: CCN(CC)CCCC(C)Nc1ccnc2cc(Cl)ccc12 (centres unmarked) [chloroquine]
- IC50 (SARS; against SARS): 8 µM
- CC50 (SARS): 261 µM
- EC50 (BetaCoV/Wuhan/WIV04/2019): 1.13 µM

Molecule: iota-carrageenan [reference compound]
- reduction of infection by nucleocapsid ELISA [4]: 17%
- reduction of infection in the plaque assay [4]: 21%
